For one test, the target named is Carbonic anhydrase 9 (Homo sapiens, UniProt Q16790).
In another test the target is Carbonic anhydrase 14 (Homo sapiens, UniProt Q9ULX7).

For 7 compounds, Ki results are on record in ChEMBL document CHEMBL1165874, “Carbonic anhydrase inhibitors: synthesis and inhibition of the human cytosolic isozymes I and II and transmembrane isozymes IX, XII (cancer-associated) and XIV with 4-substituted 3-pyridinesulfonamides” (Eur J Med Chem, 2010).

Carbonic anhydrase 14, sequence (Q9ULX7 whole entry): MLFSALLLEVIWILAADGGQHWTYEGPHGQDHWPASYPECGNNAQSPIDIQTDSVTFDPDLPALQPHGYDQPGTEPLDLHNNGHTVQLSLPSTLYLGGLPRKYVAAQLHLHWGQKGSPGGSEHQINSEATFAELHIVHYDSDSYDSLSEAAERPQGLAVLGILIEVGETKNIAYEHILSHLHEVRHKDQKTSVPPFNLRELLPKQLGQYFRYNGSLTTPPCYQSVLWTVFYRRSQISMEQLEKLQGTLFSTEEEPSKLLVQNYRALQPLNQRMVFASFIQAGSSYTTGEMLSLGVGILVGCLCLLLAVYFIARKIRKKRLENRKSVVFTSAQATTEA

Regarding `CC1CC=NN1c1ccncc1S(N)(=O)=O` (configuration not stated), the affinity at Carbonic anhydrase 9 corresponds to a Ki of 7.8 nM.

`NS(=O)(=O)c1cnccc1Oc1ccc(F)cc1`: on Carbonic anhydrase 9, the affinity corresponds to a Ki of 7.9 nM.

Turning to `NS(=O)(=O)c1cnccc1Sc1nc2ccc([N+](=O)[O-])cc2s1`, the inhibition constant Ki (as a rule, the equilibrium dissociation constant of an inhibitor or competing ligand from its target) at Carbonic anhydrase 9 was 9.6 nM.

Turning to `C#CCSc1ccncc1S(N)(=O)=O`, the affinity at Carbonic anhydrase 9, expressed as Ki, was 6.3 nM.

Take `N#Cc1ccc(Oc2ccncc2S(N)(=O)=O)cc1`: the inhibition constant (Ki) on Carbonic anhydrase 9 was found to be 7.2 nM.

At Carbonic anhydrase 9, `NS(=O)(=O)c1cnccc1Sc1nnns1` returned an inhibitory constant (Ki) of 7.7 nM.

`NS(=O)(=O)c1ccc(S(=O)(=O)Nc2cccc3c(Cl)c[nH]c23)cc1`: affinity on Carbonic anhydrase 14 was put at a Ki of 104 nM.
